What was measured:
Type in all cases: in vivo
[1] = tested on: adult brown dog ticks (Rhipicephalus sanguineus); assay: Rhipicephalus sanguineus in-vitro contact test, adult brown dog ticks; conditions: 1 μg/cm^2 (=100 g/ha), after 48 hours; for pest or weed control at 1 µg/cm2, 100 g/ha: Rhipicephalus sanguineus, read-out: efficacy (ticks dead or moribund)
Method: Rhipicephalus sanguineus—In-Vitro Contact Tests with Adult Brown Dog Ticks
(§1) 9 mg compound is solved in 1 mL acetone and diluted with acetone to the desired concentration. 250 μL of the test solution is filled in 25 mL glass test tubes and homogeneously distributed on the inner walls by rotation and tilting on a shaking device (2 h at 30 rpm). With a compound concentration of 900 ppm, an inner surface of 44.7 cm^2 and a homogeneous distribution, a dose of 5 μg/cm^2 is achieved.
(§2) After the solvent has evaporated, each test tube is filled with 5-10 adult brown dog ticks (Rhipicephalus sanguineus), closed with a perforated lid and incubated in a lying position at room temperature and relative humidity. After 48 hours efficacy is determined. The ticks are patted on the ground of the tubes and are incubated on a heating plate at 45-50° C. for at most 5 minutes. Immotile or uncoordinated moving ticks, which are not able to escape the heat by climbing upwards, are marked as dead or moribund.
An efficacy of 100% means all ticks are dead or moribund; 0% means no ticks are dead or moribund.

[2] = tested on: fall armyworm larvae (Spodoptera frugiperda); assay: Spodoptera frugiperda spray test (SPODFR); conditions: in Zea mays, 168 h
Method: Spodoptera frugiperda—Spray Test
Solvent: 78.0 parts by weight acetone • 1.5 parts by weight dimethylformamide
(§3) Emulsifier: alkylarylpolyglycol ether
(§4) To produce a suitable preparation of active compound, 1 part by weight of active compound is mixed with the stated amount of solvents and is diluted with water, containing an emulsifier concentration of 1000 ppm, to the desired concentration. Further test concentrations are prepared by dilution with emulsifier containing water.
Maize (Zea mays) leaf sections are sprayed with a preparation of the active ingredient of the desired concentration. Once dry, the leaf sections are infested with fall armyworm larvae (Spodoptera frugiperda).
After 7 days mortality in % is determined. 100% means all caterpillars have been killed and 0% means none of the caterpillars have been killed.
Spodoptera frugiperda—Spray Test (SPODFR
After the specified period of time, mortality in % is determined. 100% means all caterpillars have been killed and 0% means none of the caterpillars have been killed.

[3] = tested on: Rhipicephalus (Boophilus) microplus larvae (strain Parkhurst, resistant against synthetic pyrethroids); assay: Rhipicephalus (Boophilus) microplus in-vitro contact test, larval cattle tick; conditions: 1 μg/cm^2 (=100 g/ha), after 48 hours; for pest or weed control at 1 µg/cm2: Rhipicephalus microplus, read-out: efficacy (larvae dead or moribund)
Method: Rhipicephalus (Boophilus) Microplus—In-Vitro Contact Tests Larval Cattle Tick (Strain Parkhurst, Resistant Against Synthetic Pyrethroids
as §1
After the solvent has evaporated, each test tube is filled with 20-50 cattle tick larvae (Rhipicephalus microplus), closed with a perforated lid and incubated in a horizontal position at 85% relative humidity and 27° C. in an incubator. After 48 hours efficacy is determined. The larvae are patted on the ground of the tubes and negative geotactic behavior is recorded.

[4] = tested on: larvae of the banded cucumber beetle (Diabrotica balteata); assay: Diabrotica balteata spray test; conditions: 100 g/ha (=32 μg/well), wheat seeds, after 7 days
Method: Diabrotica balteata—Spray Test
Solvent: 78.0 parts by weight of acetone • • 1.5 parts by weight of dimethylformamide
as §3
as §4, with “solvent,” for “solvents”, “and the concentrate” for “and”
Soaked wheat seeds (Triticum aestivum) are placed in a multiple well plate filled with agar and some water and are incubated for 1 day to germinate (5 seeds per well). The germinated wheat seeds are sprayed with a test solution containing the desired concentration of the active ingredient. Afterwards each unit is infected with 10-20 larvae of the banded cucumber beetle (Diabrotica balteata).
After 7 days efficacy in % is determined. 100% means all the seedlings have grown up like in the untreated, uninfected control; 0% means none of the seedlings have grown.

[5] = tested on: adult cat fleas (Ctenocephalides felis); assay: Ctenocephalides felis in-vitro contact test, adult cat flea; conditions: 1 μg/cm^2 (=100 g/ha), after 48 hours
Method: Ctenocephalides Felis—In-Vitro Contact Tests Adult Cat Flea
as §1
as §2, with “cat fleas (Ctenocephalides felis),” for “brown dog ticks (Rhipicephalus sanguineus),”, “fleas” for “ticks”, “fleas,” for “ticks,”
An efficacy of 100% means all fleas are dead or moribund; 0% means no fleas are dead or moribund.

SMILES	efficacy (seedlings grown) [4] [%]	efficacy (larvae dead or moribund) [3] [%]	further results
CCNC(=O)c1cnc(-n2nc(C)nc2[C@H](C)NC(=O)c2cc(C(F)(F)F)cc(C(F)(F)F)c2)cn1 [Example I-013]	–	–	pest or weed control at 1 µg/cm2, 100 g/ha [1]: 100%; mortality at 100 g/ha [2]: 100%; pest or weed control at 1 µg/cm2 [3]: 100%
C[C@H](NC(=O)c1cc(OC(F)(F)F)cc(OC(F)(F)F)c1)c1ncnn1-c1cnc(C(=O)NC2CC2)cn1 [Example I-024]	100	100	efficacy (ticks dead or moribund) [1]: 100%
C[C@H](NC(=O)c1cc(OC(F)(F)F)cc(OC(F)(F)F)c1)c1ncnn1-c1cnc(C(=O)N(C)C)cn1 [Example I-025]	100	100	efficacy (ticks dead or moribund) [1]: 100%; efficacy (fleas dead or moribund) [5]: 100%
C[C@H](NC(=O)c1cc(OC(F)(F)F)cc(OC(F)(F)F)c1)c1nc(C2CC2)nn1-c1cnc(C(=O)N(C)C)cn1 [Example I-027]	–	–	mortality at 100 g/ha [2]: 83%; pest or weed control at 1 µg/cm2 [3]: 100%
C[C@H](NC(=O)c1cc(OC(F)(F)F)cc(OC(F)(F)F)c1)c1ncnn1-c1cnc(C(N)=O)cn1 [Example I-029]	–	–	pest or weed control at 1 µg/cm2, 100 g/ha [1]: 100%; pest or weed control at 1 µg/cm2 ([5]; Ctenocephalides felis, read-out: efficacy (fleas dead or moribund)): 100%; mortality at 100 g/ha [2]: 100%; pest or weed control at 1 µg/cm2 [3]: 100%
CCNC(=O)c1cnc(-n2nc(C)nc2[C@H](C)NC(=O)c2cc(OC(F)(F)F)cc(OC(F)(F)F)c2)cn1 [Example I-035]	–	–	mortality at 100 g/ha [2]: 100%; pest or weed control at 1 µg/cm2 [3]: 100%
Cc1nc([C@H](C)NC(=O)c2cc(OC(F)(F)F)cc(OC(F)(F)F)c2)n(-c2cnc(C(=O)N(C)C)cn2)n1 [Example I-037]	100	100	efficacy (ticks dead or moribund) [1]: 100%; efficacy (fleas dead or moribund) [5]: 100%
CCN(C)C(=O)c1cnc(-n2nc(C)nc2[C@H](C)NC(=O)c2cc(OC(F)(F)F)cc(OC(F)(F)F)c2)cn1 [Example I-038]	100	100	efficacy (ticks dead or moribund) [1]: 100%; efficacy (fleas dead or moribund) [5]: 100%
Cc1nc([C@H](C)NC(=O)c2cc(OC(F)(F)F)cc(S(C)(=O)=O)c2)n(-c2cnc(C(=O)N(C)C3CC3)cn2)n1 [Example I-040]	–	100	efficacy (ticks dead or moribund) [1]: 100%; efficacy (fleas dead or moribund) [5]: 100%
CNC(=O)c1cnc(-n2nc(C)nc2[C@H](C)NC(=O)c2cc(OC(F)(F)F)cc(C3CC3)c2)cn1 [Example I-045]	100	100	efficacy (ticks dead or moribund) [1]: 100%; efficacy (fleas dead or moribund) [5]: 100%
Cc1nc([C@H](C)NC(=O)c2cc(OC(F)(F)F)cc(C3CC3)c2)n(-c2cnc(C(N)=O)cn2)n1 [Example I-046]	100	100	–
Cc1nc([C@H](C)NC(=O)c2cc(OC(F)(F)F)cc(C3(C)CC3)c2)n(-c2cnc(C(=O)N(C)C)cn2)n1 [Example I-053]	–	100	efficacy (ticks dead or moribund) [1]: 100%; efficacy (fleas dead or moribund) [5]: 80%
CNC(=O)c1cnc(-n2nc(C)nc2[C@H](C)NC(=O)c2cc(OC(F)(F)F)cc(C3(C#N)CC3)c2)cn1 [Example I-054]	100	–	–
Cc1nc([C@H](C)NC(=O)c2cc(OC(F)(F)F)cc(C3(C#N)CC3)c2)n(-c2cnc(C(=O)N(C)C)cn2)n1 [Example I-055]	–	100	efficacy (ticks dead or moribund) [1]: 80%; efficacy (fleas dead or moribund) [5]: 100%
C[C@H](NC(=O)c1cc(C(F)(F)F)cc(C(F)(F)F)c1)c1nc(C2CC2)nn1-c1cnc(C(=O)NC2CC2)cn1 [Example I-056]	100	100	–
C[C@H](NC(=O)c1cc(C(F)(F)F)cc(C(F)(F)F)c1)c1nc(C2CC2)nn1-c1cnc(C(N)=O)cn1 [Example I-057]	100	–	–

SMILES	efficacy (seedlings grown) [4] [%]	efficacy (larvae dead or moribund) [3] [%]	further results
C[C@H](NC(=O)c1cc(C(F)(F)F)cc(C(F)(F)F)c1)c1nc(C2CC2)nn1-c1cnc(C(=O)N(C)C2CC2)cn1 [Example I-058]	100	–	–
C[C@H](NC(=O)c1cc(OC(F)(F)F)cc(OC(F)(F)F)c1)c1nc(C2CC2)nn1-c1cnc(C(N)=O)cn1 [Example I-062]	100	100	–
C[C@H](NC(=O)c1cc(Br)cc(C(C)(C)F)c1)c1ncnn1-c1cnc(C(N)=O)cn1 [Example I-063]	100	–	–
C[C@H](NC(=O)c1cc(OC(F)F)cc(OC(F)F)c1)c1nc(C2CC2)nn1-c1cnc(C(N)=O)cn1 [Example I-070]	100	–	–
C[C@H](NC(=O)c1cc(Cl)cc(S(F)(F)(F)(F)F)c1)c1nc(C2CC2)nn1-c1cnc(C(N)=O)cn1 [Example I-074]	80	–	–
C[C@H](NC(=O)c1cc(Br)cc(S(F)(F)(F)(F)F)c1)c1nc(C2CC2)nn1-c1cnc(C(N)=O)cn1 [Example I-075]	100	–	–
C[C@H](NC(=O)c1cc(OC(F)(F)F)cc(S(C)(=O)=O)c1)c1ncnn1-c1cnc(C(=O)NCC#N)cn1 [Example I-086]	100	–	–
Cc1nc([C@H](C)NC(=O)c2cc(OC(F)(F)F)cc(S(C)(=O)=O)c2)n(-c2cnc(C(=O)NCC#N)cn2)n1 [Example I-087]	100	–	–
C[C@H](NC(=O)c1cc(Cl)cc(S(C)(=O)=O)c1)c1ncnn1-c1cnc(C(=O)NCC#N)cn1 [Example I-088]	100	–	–
C[C@H](NC(=O)c1cc(OC(F)F)cc(OC(F)F)c1)c1ncnn1-c1cnc(C(=O)NCC#N)cn1 [Example I-089]	100	–	–
C[C@H](NC(=O)c1cc(OC(F)(F)F)cc(S(C)(=O)=O)c1)c1nc(C2CC2)nn1-c1cnc(C(N)=O)cn1 [Example I-095]	100	–	–
C[C@H](NC(=O)c1cc(OC(F)(F)C(F)F)cc(S(C)(=O)=O)c1)c1ncnn1-c1cnc(C(=O)NCC#N)cn1 [Example I-096]	100	–	–
CNC(=O)c1cnc(-n2ncnc2[C@H](C)NC(=O)c2cc(Cl)cc(S(C)(=O)=O)c2)cn1 [Example I-098]	–	100	–
Cc1nc([C@H](C)NC(=O)c2cc(OC(F)(F)F)cc(OC(F)(F)F)c2)n(-c2cnc(C(=O)N(C)CC#N)cn2)n1 [Example I-101]	100	–	–
C[C@H](NC(=O)c1cc(OC(F)(F)F)cc(S(C)(=O)=O)c1)c1ncnn1-c1cnc(C(=O)N(C)CC#N)cn1 [Example I-104]	100	–	–
C[C@H](NC(=O)c1cc(OC(F)(F)F)cc(OC(F)(F)F)c1)c1ncnn1-c1cnc(C(=O)N(C)CC#N)cn1 [Example I-105]	100	–	–

From patent US20240368125A1, “NOVEL PYRAZINYL-TRIAZOLE COMPOUNDS AS PESTICIDES” (Bayer Aktiengesellschaft, priority 2021, published 2024)
